Measurements from PubChem BioAssay (NCI).
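Tested at 5 concentrations; 48 h exposure; 96-well plates; endpoints linearly interpolated, else capped at highest concentration. TGI denotes the concentration required for complete inhibition of growth.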

Columns and labels:
Experiment in all cases: NCI-60 cell line screen, 48 h
UACC-62 melanoma = test system: UACC-62 melanoma
OVCAR-5 ovarian = test system: OVCAR-5 ovarian
CAKI-1 renal = test system: CAKI-1 renal
HOP-92 NSCLC = test system: HOP-92 NSCLC
UO-31 renal = test system: UO-31 renal
DU-145 prostate = test system: DU-145 prostate
BT-549 breast = test system: BT-549 breast
A498 renal = test system: A498 renal
MALME-3M melanoma = test system: MALME-3M melanoma
IGROV1 ovarian = test system: IGROV1 ovarian
MCF7 breast = test system: MCF7 breast
NCI-H23 lung = test system: NCI-H23 lung
HCT-15 colon = test system: HCT-15 colon
PC-3 prostate = test system: PC-3 prostate
MDA-N = test system: MDA-N
MDA-MB-231 breast = test system: MDA-MB-231 breast
SNB-75 CNS = test system: SNB-75 CNS
SK-MEL-28 melanoma = test system: SK-MEL-28 melanoma
M14 melanoma = test system: M14 melanoma
SF-539 CNS = test system: SF-539 CNS
A549 NSCLC = test system: A549 NSCLC
ACHN renal = test system: ACHN renal
SK-MEL-5 melanoma = test system: SK-MEL-5 melanoma
U251 CNS = test system: U251 CNS
SF-295 CNS = test system: SF-295 CNS
NCI-H460 lung = test system: NCI-H460 lung
NCI/ADR-RES ovarian = test system: NCI/ADR-RES ovarian
SR leukemia = test system: SR leukemia
SK-OV-3 ovarian = test system: SK-OV-3 ovarian
COLO 205 colon = test system: COLO 205 colon
UACC-257 melanoma = test system: UACC-257 melanoma
HL-60(TB) leukemia = test system: HL-60(TB) leukemia
SNB-19 CNS = test system: SNB-19 CNS
MDA-MB-435 = test system: MDA-MB-435
MOLT-4 leukemia = test system: MOLT-4 leukemia
NCI-H226 lung = test system: NCI-H226 lung
OVCAR-3 ovarian = test system: OVCAR-3 ovarian
HOP-62 NSCLC = test system: HOP-62 NSCLC
SW-620 colon = test system: SW-620 colon
OVCAR-4 ovarian = test system: OVCAR-4 ovarian
T-47D breast = test system: T-47D breast
OVCAR-8 ovarian = test system: OVCAR-8 ovarian
NCI-H522 lung = test system: NCI-H522 lung
SK-MEL-2 melanoma = test system: SK-MEL-2 melanoma
EKVX NSCLC = test system: EKVX NSCLC
HT29 colon = test system: HT29 colon
K-562 leukemia = test system: K-562 leukemia
HS 578T breast = test system: HS 578T breast
LOX IMVI melanoma = test system: LOX IMVI melanoma
TK-10 renal = test system: TK-10 renal
RPMI-8226 leukemia = test system: RPMI-8226 leukemia
SF-268 CNS = test system: SF-268 CNS
786-0 renal = test system: 786-0 renal
HCT-116 colon = test system: HCT-116 colon
CCRF-CEM leukemia = test system: CCRF-CEM leukemia
RXF 393 renal = test system: RXF 393 renal
KM12 colon = test system: KM12 colon
SN12C renal = test system: SN12C renal

Measured: TGI

NC(=S)N/N=C/c1c[nH]c2ccccc12
> 100 µM: all assays above
